Reference: PubChem BioAssay (NCI)
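Cells were grown in 96-well plates and exposed to each compound for 48 hours at five concentrations; endpoints were interpolated linearly between bracketing concentrations, or set to the highest concentration if not reached. TGI denotes the concentration required for complete inhibition of growth.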

Columns and labels:
Experiment in all cases: NCI-60 cell line screen, 48 h
CCRF-CEM leukemia = system: CCRF-CEM leukemia
SK-OV-3 ovarian = system: SK-OV-3 ovarian
UO-31 renal = system: UO-31 renal
U251 CNS = system: U251 CNS
MCF7 breast = system: MCF7 breast
786-0 renal = system: 786-0 renal
SW-620 colon = system: SW-620 colon
MDA-MB-231 breast = system: MDA-MB-231 breast
SR leukemia = system: SR leukemia
MOLT-4 leukemia = system: MOLT-4 leukemia
T-47D breast = system: T-47D breast
SF-295 CNS = system: SF-295 CNS
TK-10 renal = system: TK-10 renal
NCI-H23 lung = system: NCI-H23 lung
IGROV1 ovarian = system: IGROV1 ovarian
SN12C renal = system: SN12C renal
KM12 colon = system: KM12 colon
OVCAR-5 ovarian = system: OVCAR-5 ovarian
SK-MEL-5 melanoma = system: SK-MEL-5 melanoma
SNB-75 CNS = system: SNB-75 CNS
NCI-H460 lung = system: NCI-H460 lung
HOP-62 NSCLC = system: HOP-62 NSCLC
UACC-257 melanoma = system: UACC-257 melanoma
A498 renal = system: A498 renal
HOP-92 NSCLC = system: HOP-92 NSCLC
NCI/ADR-RES ovarian = system: NCI/ADR-RES ovarian
ACHN renal = system: ACHN renal
RPMI-8226 leukemia = system: RPMI-8226 leukemia
UACC-62 melanoma = system: UACC-62 melanoma
M14 melanoma = system: M14 melanoma
EKVX NSCLC = system: EKVX NSCLC
HS 578T breast = system: HS 578T breast
HL-60(TB) leukemia = system: HL-60(TB) leukemia
COLO 205 colon = system: COLO 205 colon
NCI-H522 lung = system: NCI-H522 lung
HCT-15 colon = system: HCT-15 colon
RXF 393 renal = system: RXF 393 renal
NCI-H226 lung = system: NCI-H226 lung
OVCAR-4 ovarian = system: OVCAR-4 ovarian
DU-145 prostate = system: DU-145 prostate
SK-MEL-28 melanoma = system: SK-MEL-28 melanoma
MDA-MB-435 = system: MDA-MB-435
OVCAR-8 ovarian = system: OVCAR-8 ovarian
HCT-116 colon = system: HCT-116 colon
SF-539 CNS = system: SF-539 CNS
MDA-N = system: MDA-N
HT29 colon = system: HT29 colon
SF-268 CNS = system: SF-268 CNS
CAKI-1 renal = system: CAKI-1 renal
K-562 leukemia = system: K-562 leukemia
HCC-2998 colon = system: HCC-2998 colon
OVCAR-3 ovarian = system: OVCAR-3 ovarian
MALME-3M melanoma = system: MALME-3M melanoma
A549 NSCLC = system: A549 NSCLC
PC-3 prostate = system: PC-3 prostate
LOX IMVI melanoma = system: LOX IMVI melanoma
SK-MEL-2 melanoma = system: SK-MEL-2 melanoma
SNB-19 CNS = system: SNB-19 CNS
BT-549 breast = system: BT-549 breast

O=C(CC(C(=O)c1ccsc1)c1ccccc1)c1cccs1 (stereo unspecified)
TGI (CCRF-CEM leukemia): > 100 µM | TGI (SK-OV-3 ovarian): > 100 µM | TGI (UO-31 renal): 95.7 µM | TGI (U251 CNS): > 100 µM | TGI (MCF7 breast): 79.6 µM | TGI (786-0 renal): > 100 µM | TGI (SW-620 colon): > 100 µM | TGI (MDA-MB-231 breast): > 100 µM | TGI (SR leukemia): > 100 µM | TGI (MOLT-4 leukemia): > 100 µM | TGI (T-47D breast): 45.3 µM | TGI (SF-295 CNS): > 100 µM | TGI (TK-10 renal): > 100 µM | TGI (NCI-H23 lung): 77.3 µM | TGI (IGROV1 ovarian): > 100 µM | TGI (SN12C renal): > 100 µM | TGI (KM12 colon): 88.6 µM | TGI (OVCAR-5 ovarian): > 100 µM | TGI (SK-MEL-5 melanoma): > 100 µM | TGI (SNB-75 CNS): > 100 µM | TGI (NCI-H460 lung): > 100 µM | TGI (HOP-62 NSCLC): > 100 µM | TGI (UACC-257 melanoma): > 100 µM | TGI (A498 renal): > 100 µM | TGI (HOP-92 NSCLC): > 100 µM | TGI (NCI/ADR-RES ovarian): 67.9 µM | TGI (ACHN renal): > 100 µM | TGI (RPMI-8226 leukemia): > 100 µM | TGI (UACC-62 melanoma): > 100 µM | TGI (M14 melanoma): > 100 µM | TGI (EKVX NSCLC): > 100 µM | TGI (HS 578T breast): > 100 µM | TGI (HL-60(TB) leukemia): > 100 µM | TGI (COLO 205 colon): > 100 µM | TGI (NCI-H522 lung): > 100 µM | TGI (HCT-15 colon): > 100 µM | TGI (RXF 393 renal): > 100 µM | TGI (NCI-H226 lung): > 100 µM | TGI (OVCAR-4 ovarian): > 100 µM | TGI (DU-145 prostate): > 100 µM | TGI (SK-MEL-28 melanoma): > 100 µM | TGI (MDA-MB-435): > 100 µM | TGI (OVCAR-8 ovarian): > 100 µM | TGI (HCT-116 colon): > 100 µM | TGI (SF-539 CNS): > 100 µM | TGI (MDA-N): > 100 µM | TGI (HT29 colon): > 100 µM | TGI (SF-268 CNS): > 100 µM | TGI (CAKI-1 renal): > 100 µM | TGI (K-562 leukemia): > 100 µM | TGI (HCC-2998 colon): > 100 µM | TGI (OVCAR-3 ovarian): > 100 µM

O=C1C=CC(=O)c2c(O)c(N[C@@H](Cc3ccccc3)C(=O)OCc3ccccc3)c(Cl)c(O)c21
TGI (CCRF-CEM leukemia): > 10 µM | TGI (MALME-3M melanoma): > 10 µM | TGI (SK-OV-3 ovarian): > 10 µM | TGI (U251 CNS): > 10 µM | TGI (786-0 renal): > 10 µM | TGI (SW-620 colon): > 10 µM | TGI (MDA-MB-231 breast): 8.43 µM | TGI (T-47D breast): > 10 µM | TGI (SF-295 CNS): > 10 µM | TGI (TK-10 renal): > 10 µM | TGI (NCI-H23 lung): > 10 µM | TGI (IGROV1 ovarian): > 10 µM | TGI (SN12C renal): > 10 µM | TGI (KM12 colon): > 10 µM | TGI (OVCAR-5 ovarian): > 10 µM | TGI (SK-MEL-5 melanoma): 8.18 µM | TGI (SNB-75 CNS): > 10 µM | TGI (NCI-H460 lung): > 10 µM | TGI (A549 NSCLC): > 10 µM | TGI (HOP-62 NSCLC): > 10 µM | TGI (UACC-257 melanoma): > 10 µM | TGI (A498 renal): > 10 µM | TGI (HOP-92 NSCLC): > 10 µM | TGI (NCI/ADR-RES ovarian): 5.62 µM | TGI (ACHN renal): > 10 µM | TGI (RPMI-8226 leukemia): > 10 µM | TGI (PC-3 prostate): > 10 µM | TGI (UACC-62 melanoma): > 10 µM | TGI (M14 melanoma): > 10 µM | TGI (EKVX NSCLC): > 10 µM | TGI (HS 578T breast): > 10 µM | TGI (HL-60(TB) leukemia): > 10 µM | TGI (COLO 205 colon): 6.71 µM | TGI (NCI-H522 lung): > 10 µM | TGI (HCT-15 colon): > 10 µM | TGI (RXF 393 renal): > 10 µM | TGI (NCI-H226 lung): > 10 µM | TGI (LOX IMVI melanoma): 7.11 µM | TGI (OVCAR-4 ovarian): > 10 µM | TGI (DU-145 prostate): > 10 µM | TGI (SK-MEL-28 melanoma): > 10 µM | TGI (MDA-MB-435): > 10 µM | TGI (OVCAR-8 ovarian): > 10 µM | TGI (SK-MEL-2 melanoma): > 10 µM | TGI (SNB-19 CNS): > 10 µM | TGI (HCT-116 colon): 4.42 µM | TGI (SF-539 CNS): 8.86 µM | TGI (MDA-N): > 10 µM | TGI (HT29 colon): > 10 µM | TGI (SF-268 CNS): > 10 µM | TGI (CAKI-1 renal): > 10 µM | TGI (HCC-2998 colon): > 10 µM | TGI (OVCAR-3 ovarian): 7.15 µM | TGI (BT-549 breast): > 10 µM
